The test system of the test is KM12 cells. Nature of the test: KM12 cell viability (CellTiter-Glo). The test is classed as cell-based. The settings on record: Homo sapiens, 72 h, KM12 cell viability, CellTiter-Glo, read-out: IC50. Here is the method: KM12 or H358 cells were treated with 1000 nM CPD-053 following an 8-point 3-fold serial dilution for 3 days.
KM12 cells seeded in 96-well plates were treated with heterobifunctional compounds following a 11-point 3-fold serial dilution for 3 days.
KM12, H358, HEL, SU-DHL-1 and other cells were cultured at 37° C. with 5% CO2 in RPMI 1640 Medium supplemented with 10% fetal bovine serum. Cells were authenticated using the short tandem repeat (STR) assays. Mycoplasma test results were negative. Stable cell lines were established by lentivirus transduction, selected and maintained in medium containing 1 μg/mL puromycin (Beyotime Biotechnology).
Cells were seeded at a density of 5000 cells per well in 96-well assay plates and treated with test compounds following a 12-point 2-fold serial dilution or a 8-point 3-fold dilution, or 11-point 3-fold serial dilution. Three days later, cell viability was determined using the CellTiter-Glo assay kit (Promega) according to the manufacturer's instructions. The dose-response curves were determined and IC50 values were calculated using the GraphPad Prism software following a nonlinear regression (least squares fit) method.
A general note: Cellular ATP, detected with luciferase, serves as a proxy for viable cell number.

Where [1] appears, read: 11-point 3-fold serial dilution, 3 days.

Read-outs that look alike come from different tables or passages of the source.

With `Cc1ncsc1-c1ccc(CNC(=O)[C@@H]2C[C@@H](O)CN2C(=O)[C@@H](NC(=O)CCOCCOCCOCCOCCC(=O)N2CCN(Cc3ccc(NC(=O)c4coc(N5CCOCC5)n4)c(N4CCC(C(N)=O)CC4)c3)CC2)C(C)(C)C)cc1` [CPD-497, N-(2-(4-carbamoylpiperidin-1-yl)-4-((4-((S)-18-((2S,4R)-4-hydroxy-2-((4-(4-methylthiazol-5-yl)benzyl)carbamooyl)pyrrolidine-1-carbonyl)-19,19-dimethyl-16-oxo-4,7,10,13-tetraoxa-17-azaicosanoyl)piperazin-1-yl)methyl)phenyl)-2-morpholinooxazole-4-carboxamide], the IC50 under setting [1] was > 10000 nM.

Consider `COc1ccc(COc2ccc(Cn3c(N)nc4cc(-c5cnn(CC(=O)NCCOCCNc6cccc7c6C(=O)N(C6CCC(=O)NC6=O)C7=O)c5)cnc43)cc2OC)cc1` (stereo not shown) [CPD-502, 2-(4-(2-amino-3-(3-methoxy-4-((4-methoxybenzyl)oxy)benzyl)-3H-imidazo[4,5-b]pyridin-6-yl)-1H-pyrazol-1-yl)-N-(2-(2-((2-(2,6-dioxopiperidin-3-yl)-1,3-dioxoisoindolin-4-yl)amino)ethoxy)ethyl)acetamide], for which the IC50 under setting [1] stood at 682 nM.

Take `COc1ccc(COc2ccc(Cn3c(N)nc4cc(-c5cnn(CC(=O)NCCOCCOCCNc6cccc7c6C(=O)N(C6CCC(=O)NC6=O)C7=O)c5)cnc43)cc2OC)cc1` (stereo not shown) [CPD-503, 2-(4-(2-amino-3-(3-methoxy-4-((4-methoxybenzyl)oxy)benzyl)-3H-imidazo[4,5-b]pyridin-6-yl)-1H-pyrazol-1-yl)-N-(2-(2-(2-((2-(2,6-dioxopiperidin-3-yl)-1,3-dioxoisoindolin-4-yl)amino)ethoxy)ethoxy)ethyl)acetamide]: the IC50 under setting [1] turned out to be 504 nM.

In the case of `COc1ccc(COc2ccc(Cn3c(N)nc4cc(-c5cnn(CC(=O)NCCOCCOCCOCCNc6cccc7c6C(=O)N(C6CCC(=O)NC6=O)C7=O)c5)cnc43)cc2OC)cc1` (stereo not shown) [CPD-504, 2-(4-(2-amino-3-(3-methoxy-4-((4-methoxybenzyl)oxy)benzyl)-3H-imidazo[4,5-b]pyridin-6-yl)-1H-pyrazol-1-yl)-N-(2-(2-(2-(2-((2-(2,6-dioxopiperidin-3-yl)-1,3-dioxoisoindolin-4-yl)amino)ethoxy)ethoxy)ethoxy)ethyl)acetamide], under setting [1], the IC50 stood at 334 nM.

Turning to `COc1ccc(COc2ccc(Cn3c(N)nc4cc(-c5cnn(CC(=O)NCCOCCOCCOCCOCCNc6cccc7c6C(=O)N(C6CCC(=O)NC6=O)C7=O)c5)cnc43)cc2OC)cc1` (stereo not shown) [CPD-505, 2-(4-(2-amino-3-(3-methoxy-4-((4-methoxybenzyl)oxy)benzyl)-3H-imidazo[4,5-b]pyridin-6-yl)-1H-pyrazol-1-yl)-N-(14-((2-(2,6-dioxopiperidin-3-yl)-1,3-dioxoisoindolin-4-yl)amino)-3,6,9,12-tetraoxatetradecyl)acetamide], the IC50 under setting [1] stood at 195 nM.

On to `COc1ccc(COc2ccc(Cn3c(N)nc4cc(-c5cnn(CC(=O)NCCOCCOCCOCCOCCOCCNc6cccc7c6C(=O)N(C6CCC(=O)NC6=O)C7=O)c5)cnc43)cc2OC)cc1` (stereo not shown) [CPD-506, 2-(4-(2-amino-3-(3-methoxy-4-((4-methoxybenzyl)oxy)benzyl)-3H-imidazo[4,5-b]pyridin-6-yl)-1H-pyrazol-1-yl)-N-(17-((2-(2,6-dioxopiperidin-3-yl)-1,3-dioxoisoindolin-4-yl)amino)-3,6,9,12,15-pentaoxaheptadecyl)acetamide], for which the half-maximal inhibitory concentration (IC50) under setting [1] is 204 nM.

For the molecule `COc1ccc(COc2ccc(Cn3c(N)nc4cc(-c5cnn(CC(=O)NCC(=O)N[C@H](C(=O)N6C[C@H](O)C[C@H]6C(=O)NCc6ccc(-c7scnc7C)cc6)C(C)(C)C)c5)cnc43)cc2OC)cc1` [CPD-507], under setting [1], the concentration for half-maximal inhibition (IC50) was found to be 1520 nM.

For `COc1ccc(COc2ccc(Cn3c(N)nc4cc(-c5cnn(CC(=O)NCCCC(=O)N[C@H](C(=O)N6C[C@H](O)C[C@H]6C(=O)NCc6ccc(-c7scnc7C)cc6)C(C)(C)C)c5)cnc43)cc2OC)cc1` [CPD-508, (2S,4R)-1-((S)-2-(4-(2-(4-(2-amino-3-(3-methoxy-4-((4-methoxybenzyl)oxy)benzyl)-3H-imidazo[4,5-b]pyridin-6-yl)-1H-pyrazol-1-yl)acetamido)butanamido)-3,3-dimethylbutanoyl)-4-hydroxy-N-(4-(4-methylthiazol-5-yl)benzyl)pyrrolidine-2-carboxamide], the IC50 under setting [1] is 2100 nM.

`COc1ccc(COc2ccc(Cn3c(N)nc4cc(-c5cnn(CC(=O)NCCCCCC(=O)N[C@H](C(=O)N6C[C@H](O)C[C@H]6C(=O)NCc6ccc(-c7scnc7C)cc6)C(C)(C)C)c5)cnc43)cc2OC)cc1` [CPD-509, (2S,4R)-1-((S)-2-(6-(2-(4-(2-amino-3-(3-methoxy-4-((4-methoxybenzyl)oxy)benzyl)-3H-imidazo[4,5-b]pyridin-6-yl)-1H-pyrazol-1-yl)acetamido)hexanamido)-3,3-dimethylbutanoyl)-4-hydroxy-N-(4-(4-methylthiazol-5-yl)benzyl)pyrrolidine-2-carboxamide]: the IC50 under setting [1] was found to be 53.1 nM.

Regarding `COc1ccc(COc2ccc(Cn3c(N)nc4cc(-c5cnn(CC(=O)NCCOCCC(=O)N[C@H](C(=O)N6C[C@H](O)C[C@H]6C(=O)NCc6ccc(-c7scnc7C)cc6)C(C)(C)C)c5)cnc43)cc2OC)cc1` [CPD-512, (2S,4R)-1-((S)-2-(3-(2-(2-(4-(2-amino-3-(3-methoxy-4-((4-methoxybenzyl)oxy)benzyl)-3H-imidazo[4,5-b]pyridin-6-yl)-1H-pyrazol-1-yl)acetamido)ethoxy)propanamido)-3,3-dimethylbutanoyl)-4-hydroxy-N-(4-(4-methylthiazol-5-yl)benzyl)pyrrolidine-2-carboxamide], the IC50 under setting [1] was determined as 307 nM.

Take `COc1ccc(COc2ccc(Cn3c(N)nc4cc(-c5cnn(CC(=O)NCCOCCOCCC(=O)N[C@H](C(=O)N6C[C@H](O)C[C@H]6C(=O)NCc6ccc(-c7scnc7C)cc6)C(C)(C)C)c5)cnc43)cc2OC)cc1` [CPD-513, (2S,4R)-1-((S)-1-(4-(2-amino-3-(3-methoxy-4-((4-methoxybenzyl)oxy)benzyl)-3H-imidazo[4,5-b]pyridin-6-yl)-1H-pyrazol-1-yl)-14-(tert-butyl)-2,12-dioxo-6,9-dioxa-3,13-diazapentadecan-15-oyl)-4-hydroxy-N-(4-(4-methylthiazol-5-yl)benzyl)pyrrolidine-2-carboxamide]: the half-inhibitory concentration (IC50) under setting [1] is 261 nM.

Consider `COc1ccc(COc2ccc(Cn3c(N)nc4cc(-c5cnn(CC(=O)NCCOCCOCCOCCC(=O)N[C@H](C(=O)N6C[C@H](O)C[C@H]6C(=O)NCc6ccc(-c7scnc7C)cc6)C(C)(C)C)c5)cnc43)cc2OC)cc1` [CPD-514, (2S,4R)-1-((S)-1-(4-(2-amino-3-(3-methoxy-4-((4-methoxybenzyl)oxy)benzyl)-3H-imidazo[4,5-b]pyridin-6-yl)-1H-pyrazol-1-yl)-17-(tert-butyl)-2,15-dioxo-6,9,12-trioxa-3,16-diazaoctadecan-18-oyl)-4-hydroxy-N-(4-(4-methylthiazol-5-yl)benzyl)pyrrolidine-2-carboxamide], for which the 50% inhibitory concentration (IC50) under setting [1] is 174 nM.

Take `COc1ccc(COc2ccc(Cn3c(N)nc4cc(-c5cnn(CC(=O)NCCOCCOCCOCCOCCC(=O)N[C@H](C(=O)N6C[C@H](O)C[C@H]6C(=O)NCc6ccc(-c7scnc7C)cc6)C(C)(C)C)c5)cnc43)cc2OC)cc1` [CPD-515, (2S,4R)-1-((S)-1-(4-(2-amino-3-(3-methoxy-4-((4-methoxybenzyl)oxy)benzyl)-3H-imidazo[4,5-b]pyridin-6-yl)-1H-pyrazol-1-yl)-20-(tert-butyl)-2,18-dioxo-6,9,12,15-tetraoxa-3,19-diazahenicosan-21-oyl)-4-hydroxy-N-(4-(4-methylthiazol-5-yl)benzyl)pyrrolidine-2-carboxamide]: the IC50 under setting [1] is 343 nM.

On to `COc1ccc(COc2ccc(Cn3c(N)nc4cc(-c5cnn(CC(=O)NCCOCCOCCOCCOCCOCCC(=O)N[C@H](C(=O)N6C[C@H](O)C[C@H]6C(=O)NCc6ccc(-c7scnc7C)cc6)C(C)(C)C)c5)cnc43)cc2OC)cc1` [CPD-516, (2S,4R)-1-((S)-1-(4-(2-amino-3-(3-methoxy-4-((4-methoxybenzyl)oxy)benzyl)-3H-imidazo[4,5-b]pyridin-6-yl)-1H-pyrazol-1-yl)-23-(tert-butyl)-2,21-dioxo-6,9,12,15,18-pentaoxa-3,22-diazatetracosan-24-oyl)-4-hydroxy-N-(4-(4-methylthiazol-5-yl)benzyl)pyrrolidine-2-carboxamide], for which, under setting [1], the IC50 came to 473 nM.

As for `O=C1CCC(N2Cc3cc(OCCN4CCN(c5cccc(-c6cnc7ccc(N8CCC[C@@H]8c8cccc(F)c8)nn67)n5)CC4)ccc3C2=O)C(=O)N1` (stereo partly drawn) [TR-200, 3-(5-(2-(4-(6-(6-((R)-2-(3-fluorophenyl)pyrrolidin-1-yl)imidazo[1,2-b]pyridazin-3-yl)pyridin-2-yl)piperazin-1-yl)ethoxy)-1-oxoisoindolin-2-yl)piperidine-2,6-dione], the IC50 (three days treatment) was determined as 101 nM.

For the molecule `O=C1CCC(N2Cc3ccc(OCCN4CCN(c5cccc(-c6cnc7ccc(N8CCC[C@@H]8c8cccc(F)c8)nn67)n5)CC4)cc3C2=O)C(=O)N1` (stereo partly drawn) [TR-201, 3-(6-(2-(4-(6-(6-((R)-2-(3-fluorophenyl)pyrrolidin-1-yl)imidazo[1,2-b]pyridazin-3-yl)pyridin-2-yl)piperazin-1-yl)ethoxy)-1-oxoisoindolin-2-yl)piperidine-2,6-dione], the half-inhibitory concentration (IC50) (three days treatment) is > 500 nM.

For orientation: IC50 means the concentration at which inhibition is half-maximal.

The values are drawn from patent US12410171B2, “Tropomyosin receptor kinase (TRK) degradation compounds and methods of use” (Cullgen (Shanghai), Inc., priority 2020, dated 2025).
